Here are results for 27 molecules from patent publication US9932314B2, “Pyrazole compounds and their use as T-type calcium channel blockers” (IDORSIA PHARMACEUTICALS LTD, priority 2015, dated 2018).

In general, IC50 refers to the midpoint of a concentration-inhibition curve.

T1 sequence (O95180 whole entry): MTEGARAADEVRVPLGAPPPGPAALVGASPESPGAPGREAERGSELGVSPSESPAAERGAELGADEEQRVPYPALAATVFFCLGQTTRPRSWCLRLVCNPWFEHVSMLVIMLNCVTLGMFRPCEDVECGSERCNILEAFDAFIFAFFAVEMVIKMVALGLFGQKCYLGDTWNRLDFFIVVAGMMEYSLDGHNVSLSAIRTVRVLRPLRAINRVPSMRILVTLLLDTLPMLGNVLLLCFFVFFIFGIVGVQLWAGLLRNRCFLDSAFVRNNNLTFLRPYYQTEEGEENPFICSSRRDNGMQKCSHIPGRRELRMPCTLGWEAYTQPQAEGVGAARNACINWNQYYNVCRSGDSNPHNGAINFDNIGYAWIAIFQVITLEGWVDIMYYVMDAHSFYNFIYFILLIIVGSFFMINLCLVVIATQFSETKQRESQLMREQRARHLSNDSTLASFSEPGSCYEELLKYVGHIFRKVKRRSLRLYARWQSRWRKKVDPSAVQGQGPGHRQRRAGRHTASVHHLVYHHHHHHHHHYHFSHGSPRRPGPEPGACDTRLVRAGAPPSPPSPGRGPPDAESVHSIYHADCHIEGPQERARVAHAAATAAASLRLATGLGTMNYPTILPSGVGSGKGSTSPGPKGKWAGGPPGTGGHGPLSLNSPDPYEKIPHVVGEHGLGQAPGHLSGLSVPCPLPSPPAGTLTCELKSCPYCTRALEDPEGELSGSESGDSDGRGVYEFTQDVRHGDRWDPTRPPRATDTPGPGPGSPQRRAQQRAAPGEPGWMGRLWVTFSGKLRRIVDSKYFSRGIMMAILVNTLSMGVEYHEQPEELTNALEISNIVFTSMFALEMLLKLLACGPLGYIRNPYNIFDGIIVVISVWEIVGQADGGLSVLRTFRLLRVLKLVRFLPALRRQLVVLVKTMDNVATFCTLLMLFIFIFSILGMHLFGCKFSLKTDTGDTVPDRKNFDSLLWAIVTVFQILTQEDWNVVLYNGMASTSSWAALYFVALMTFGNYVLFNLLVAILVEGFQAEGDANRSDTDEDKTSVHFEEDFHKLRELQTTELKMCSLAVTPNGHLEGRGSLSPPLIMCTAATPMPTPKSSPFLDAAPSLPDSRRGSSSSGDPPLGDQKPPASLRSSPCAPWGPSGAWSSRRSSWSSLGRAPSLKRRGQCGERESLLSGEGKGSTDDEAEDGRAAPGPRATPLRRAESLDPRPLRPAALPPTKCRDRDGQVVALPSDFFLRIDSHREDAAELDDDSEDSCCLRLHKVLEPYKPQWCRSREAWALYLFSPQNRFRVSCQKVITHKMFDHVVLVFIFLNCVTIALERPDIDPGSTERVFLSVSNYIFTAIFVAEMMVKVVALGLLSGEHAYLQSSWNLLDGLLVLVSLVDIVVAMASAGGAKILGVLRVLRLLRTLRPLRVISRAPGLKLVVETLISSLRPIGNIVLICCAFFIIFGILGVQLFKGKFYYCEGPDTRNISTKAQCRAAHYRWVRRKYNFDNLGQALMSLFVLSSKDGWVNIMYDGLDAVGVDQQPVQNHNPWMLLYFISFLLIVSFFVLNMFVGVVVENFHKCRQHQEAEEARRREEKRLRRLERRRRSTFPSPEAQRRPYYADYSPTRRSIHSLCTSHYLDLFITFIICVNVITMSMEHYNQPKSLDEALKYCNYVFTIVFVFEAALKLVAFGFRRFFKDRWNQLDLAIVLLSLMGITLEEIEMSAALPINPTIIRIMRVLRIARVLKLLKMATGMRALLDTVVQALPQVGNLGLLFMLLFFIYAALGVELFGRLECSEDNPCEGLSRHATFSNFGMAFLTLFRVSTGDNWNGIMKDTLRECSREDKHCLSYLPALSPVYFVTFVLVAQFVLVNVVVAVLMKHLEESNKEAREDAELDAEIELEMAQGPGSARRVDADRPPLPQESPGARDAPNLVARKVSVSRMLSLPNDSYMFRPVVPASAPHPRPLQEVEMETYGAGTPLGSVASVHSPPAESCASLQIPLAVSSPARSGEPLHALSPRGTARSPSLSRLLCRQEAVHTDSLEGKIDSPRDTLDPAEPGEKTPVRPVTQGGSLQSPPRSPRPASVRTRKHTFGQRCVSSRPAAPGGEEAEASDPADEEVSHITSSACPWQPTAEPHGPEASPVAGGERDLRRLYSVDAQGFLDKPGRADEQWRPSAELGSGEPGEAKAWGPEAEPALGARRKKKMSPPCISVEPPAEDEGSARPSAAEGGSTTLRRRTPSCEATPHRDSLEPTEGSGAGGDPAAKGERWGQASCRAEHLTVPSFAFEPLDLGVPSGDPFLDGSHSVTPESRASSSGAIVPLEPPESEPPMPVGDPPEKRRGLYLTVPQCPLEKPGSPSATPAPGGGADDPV

The assay concerns the target T1, voltage-dependent T-type calcium channel subunit alpha-1G (Cav3.2) (Homo sapiens, UniProt O95180).
T1 construct: expressed in transfected cells; host or cells: HEK293
The assay can be described thus: FLIPR calcium flux assay, HEK293 cells recombinantly expressing Cav3.2. The class given is cell-based. Conditions: Cav3.2-channel, Fluo-4-AM, 3 min incubation, stimulation with 10 mM CaCl2. A digest of the protocol:
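Calcium influx was triggered by adding CaCl2 to 10 mM final, 3 min after compounds in tetraethylammonium-based buffer, pH 7.2, reached Fluo-4-AM-loaded recombinant HEK293 cells. The integrated kinetic fluorescence signal per concentration gave concentration-response curves by non-linear sigmoidal regression.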
(In general: Calcium assays in cells follow changes in intracellular calcium, usually with a dye or a luminescent sensor.)
Consider `N#Cc1ccc(Cn2ccc(NC(=O)Cc3ccc(N4CCC4)nc3)n2)nc1` [Example 102, 2-(6-Azetidin-1-yl-pyridin-3-yl)-N-[1-(5-cyano-pyridin-2-ylmethyl)-1H-pyrazol-3-yl]-acetamide], for which the IC50 turned out to be 7050 nM.
Then `O=C(Cc1ccc(N2CCC2)nc1)Nc1ccn(Cc2ccc(F)cc2)n1` [Example 103, 2-(6-Azetidin-1-yl-pyridin-3-yl)-N-[1-(4-fluoro-benzyl)-1H-pyrazol-3-yl]-acetamide], with 145 nM; and `COCCOc1ccc(Cn2ccc(NC(=O)Cc3ccc(C(C)C)cc3)n2)nc1` [Example 104, 2-(4-Isopropyl-phenyl)-N-{1-[5-(2-methoxy-ethoxy)-pyridin-2-ylmethyl]-1H-pyrazol-3-yl}-acetamide], with 4520 nM; and `CC(C)Oc1ccc(Cn2ccc(NC(=O)Cc3ccc(C(C)C)cc3)n2)nc1` [Example 105, N-[1-(5-Isopropoxy-pyridin-2-ylmethyl)-1H-pyrazol-3-yl]-2-(4-isopropyl-phenyl)-acetamide], with 31 nM.
Then `CC(C)c1ccc(CC(=O)Nc2ccn(Cc3ccc(F)cn3)n2)cc1` [Example 106, N-[1-(5-Fluoro-pyridin-2-ylmethyl)-1H-pyrazol-3-yl]-2-(4-isopropyl-phenyl)-acetamide], with 15 nM; and `CC(C)c1ccc(CC(=O)Nc2ccn(Cc3ccc(N(C)C)cn3)n2)cc1` [Example 107, N-[1-(5-Dimethylamino-pyridin-2-ylmethyl)-1H-pyrazol-3-yl]-2-(4-isopropyl-phenyl)-acetamide], with 338 nM.
Then `CC(C)c1ccc(CC(=O)Nc2ccn(Cc3ccc(N4CC[C@H](F)C4)cn3)n2)cc1` [Example 108, N-{1-[5-((S)-3-Fluoro-pyrrolidin-1-yl)-pyridin-2-ylmethyl]-1H-pyrazol-3-yl}-2-(4-isopropyl-phenyl)-acetamide], with 322 nM; and `CC(C)c1ccc(CC(=O)Nc2ccn(Cc3ccc(C(F)(F)F)cn3)n2)cc1` [Example 109, 2-(4-Isopropyl-phenyl)-N-[1-(5-trifluoromethyl-pyridin-2-ylmethyl)-1H-pyrazol-3-yl]-acetamide], with 22 nM; and `CC(C)c1ccc(CC(=O)Nc2ccn(Cc3ccc(C#N)c(Cl)n3)n2)cc1` [Example 110, N-[1-(6-Chloro-5-cyano-pyridin-2-ylmethyl)-1H-pyrazol-3-yl]-2-(4-isopropyl-phenyl)-acetamide], with 14 nM.
As for `N#Cc1ccc(Cn2ccc(NC(=O)Cc3ccc(N4CCC4)nc3)n2)cc1` [Example 111, 2-(6-Azetidin-1-yl-pyridin-3-yl)-N-[1-(4-cyano-benzyl)-1H-pyrazol-3-yl]-acetamide], the IC50 was found to be 1330 nM.
Then `CCN(CC)c1ccc(CC(=O)Nc2ccn(Cc3ccc(OC)cc3)n2)cc1` [Example 112, 2-(4-Diethylamino-phenyl)-N-[1-(4-methoxy-benzyl)-1H-pyrazol-3-yl]-acetamide], with 21 nM; and `CCN(CC)c1ccc(CC(=O)Nc2ccn(Cc3ccc(F)c(F)c3)n2)cc1` [Example 113, 2-(4-Diethylamino-phenyl)-N-[1-(3,4-difluoro-benzyl)-1H-pyrazol-3-yl]-acetamide], with 4.8 nM.
Next, `CCN(CC)c1ccc(CC(=O)Nc2ccn(Cc3ccc(C#N)cc3)n2)cc1` [Example 114, N-[1-(4-Cyano-benzyl)-1H-pyrazol-3-yl]-2-(4-diethylamino-phenyl)-acetamide]: 14 nM; `CCc1nc(Cn2ccc(NC(=O)Cc3ccc(C(C)C)cc3)n2)ccc1C#N` [Example 115, N-[1-(5-Cyano-6-ethyl-pyridin-2-ylmethyl)-1H-pyrazol-3-yl]-2-(4-isopropyl-phenyl)-acetamide]: 57 nM.
Next, `COc1nc(Cn2ccc(NC(=O)Cc3ccc(C(C)C)cc3)n2)ccc1C#N` [Example 116, N-[1-(5-Cyano-6-methoxy-pyridin-2-ylmethyl)-1H-pyrazol-3-yl]-2-(4-isopropyl-phenyl)-acetamide]: 75 nM; `CC(C)c1ccc(CC(=O)Nc2ccn(Cc3ccc(C#N)c(OCC(F)(F)F)n3)n2)cc1` [Example 117, N-{1-[5-Cyano-6-(2,2,2-trifluoro-ethoxy)-pyridin-2-ylmethyl]-1H-pyrazol-3-yl}-2-(4-isopropyl-phenyl)-acetamide]: 332 nM; `CC(C)Oc1nc(Cn2ccc(NC(=O)Cc3ccc(C(C)C)cc3)n2)ccc1C#N` [Example 118, N-[1-(5-Cyano-6-isopropoxy-pyridin-2-ylmethyl)-1H-pyrazol-3-yl]-2-(4-isopropyl-phenyl)-acetamide]: 97 nM.
For `N#Cc1ccc(Cn2ccc(NC(=O)Cc3ccc(N4CCC(F)(F)C4)nc3)n2)nc1` [Example 119, N-[1-(5-Cyano-pyridin-2-ylmethyl)-1H-pyrazol-3-yl]-2-[6-(3,3-difluoro-pyrrolidin-1-yl)-pyridin-3-yl]-acetamide], the IC50 stood at 137 nM.
Consider `N#Cc1ccc(Cn2ccc(NC(=O)Cc3ccc(N4CCC(F)(F)C4)nc3)n2)cc1` [Example 121, N-[1-(4-Cyano-benzyl)-1H-pyrazol-3-yl]-2-[6-(3,3-difluoro-pyrrolidin-1-yl)-pyridin-3-yl]-acetamide], for which the IC50 turned out to be 68 nM.
As for `O=C(Cc1ccc(N2CCC(F)(F)C2)nc1)Nc1ccn(Cc2ccc(F)cc2)n1` [Example 122, 2-[6-(3,3-Difluoro-pyrrolidin-1-yl)-pyridin-3-yl]-N-[1-(4-fluoro-benzyl)-1H-pyrazol-3-yl]-acetamide], the IC50 came to 19 nM.
Take `CCN(CC)c1ccc(CC(=O)Nc2ccn(Cc3ccc(C#N)cn3)n2)cn1` [Example 123, N-[1-(5-Cyano-pyridin-2-ylmethyl)-1H-pyrazol-3-yl]-2-(6-diethylamino-pyridin-3-yl)-acetamide]: the IC50 amounted to 1270 nM.
Then `CCN(CC)c1ccc(CC(=O)Nc2ccn(Cc3ccc(F)c(F)c3)n2)cn1` [Example 124, 2-(6-Diethylamino-pyridin-3-yl)-N-[1-(3,4-difluoro-benzyl)-1H-pyrazol-3-yl]-acetamide], with 9.9 nM; and `COCCN(C)c1ccc(CC(=O)Nc2ccn(Cc3ccc(OC)cc3)n2)cc1` [Example 125, N-[1-(4-Methoxy-benzyl)-1H-pyrazol-3-yl]-2-{4-[(2-methoxy-ethyl)-methyl-amino]-phenyl}-acetamide], with 64 nM.
Then `COCCN(C)c1ccc(CC(=O)Nc2ccn(Cc3ccc(F)c(F)c3)n2)cc1` [Example 126], with 3.4 nM; and `COCCN(C)c1ccc(CC(=O)Nc2ccn(Cc3ccc(C#N)cc3)n2)cc1` [Example 127, N-[1-(4-Cyano-benzyl)-1H-pyrazol-3-yl]-2-{4-[(2-methoxy-ethyl)-methyl-amino]-phenyl}-acetamide], with 27 nM; and `COCCN(C)c1ccc(CC(=O)Nc2ccn(Cc3ccc(F)cc3)n2)cc1` [Example 128, N-[1-(4-Fluoro-benzyl)-1H-pyrazol-3-yl]-2-{4-[(2-methoxy-ethyl)-methyl-amino]-phenyl}-acetamide], with 9.7 nM.
Turning to `CCN(C)c1ccc(CC(=O)Nc2ccn(Cc3ccc(OC)cc3)n2)cc1` [Example 129, 2-[4-(Ethyl-methyl-amino)-phenyl]-N-[1-(4-methoxy-benzyl)-1H-pyrazol-3-yl]-acetamide], the IC50 amounted to 128 nM.
